Assay results as given in patent publication US20150316556A1, “SSEA4 AND ST3GAL2 AS CHEMOTHERAPEUTIC DRUG RESPONSE BIOMARKERS” (Miltenyi Biotech GmbH, priority 2014, published 2015).

Assays:
[1] = system: primary tumor cell line derived from model HBCx-17 (suspension and adherent cells); test: IC50 values of commonly used chemotherapeutic drugs on suspension versus adherent subpopulations of a primary tumor cell line; assay type: cell-based, human; conditions: HBCx-17 derived primary tumor cell line; n=3; suspension vs adherent subpopulation
[2] = system: epithelial breast cell line MCF10A; test: EMT induction in epithelial breast cell line by TGFβ1; assay type: cell-based, human
Description: The expression of SSEA4 was evaluated upon EMT induction. To induce a mesenchymal transition, the epithelial breast cell line MCF10A was treated with TGFβ1 at concentrations of 10 and 20 ng/ml. […] F-actin was stained by Phalloidin to visualize the cytoskeleton architecture. […] The fraction of SSEA4 positive cells was increased upon EMT induction (FIG. 8E) verifying that expression of SSEA4 indicates a more mesenchymal phenotype.
The results of the mRNA and the miRNA analysis strongly indicate that the expression of SSEA4 correlates with a more mesenchymal phenotype. […] To induce a mesenchymal transition, the epithelial breast cell line MCF10A was treated with TGFβ1 at concentrations of 10 and 20 ng/ml. […] Previously known key EMT markers like EpCAM, E-cadherin, Vimentin, and Fibronectin were regulated as expected, proving the efficiency of EMT induction using our method (FIG. 8 and data not shown). […] Strikingly, the fraction of SSEA4 positive cells was increased upon EMT induction verifying the correlation between SSEA4 expression and a more mesenchymal phenotype (FIG. 8).

Compound | IC50 values of suspension cells (higher SSEA4 expression) compared to adherent cells [1] | other results
O=c1[nH]cc(F)c(=O)[nH]1 [5-Fluorouracil] | higher IC50 values | 
CC(=O)O[C@@]12CO[C@@H]1C[C@H](O)[C@@]1(C)C(=O)[C@H](O)C3=C(C)[C@@H](OC(=O)[C@H](O)[C@@H](NC(=O)OC(C)(C)C)c4ccccc4)C[C@@](O)([C@@H](OC(=O)c4ccccc4)[C@H]21)C3(C)C [Docetaxel] | higher IC50 values | 
TGFβ1: TGFβ1 used to induce a mesenchymal transition (EMT) in MCF10A cells |  | cell morphology upon treatment ([2]; TGFβ1 10 and 20 ng/ml): almost all cells changed their morphology from a compacted colony type to an elongated fibroblastic shape; epithelial marker E-cadherin expression upon treatment ([2]; TGFβ1 10 and 20 ng/ml): downregulated; epithelial marker EpCAM expression upon treatment ([2]; TGFβ1 10 and 20 ng/ml): downregulated; fraction of SSEA4 positive cells upon EMT induction ([2]; TGFβ1 10 and 20 ng/ml): increased; mesenchymal marker Fibronectin expression upon treatment ([2]; TGFβ1 10 and 20 ng/ml): upregulated; invasive potential of treated cells ([2]; TGFβ1, data not shown): strongly increased
COc1cc([C@@H]2c3cc4c(cc3[C@@H](O[C@@H]3O[C@@H]5CO[C@@H](C)O[C@H]5[C@H](O)[C@H]3O)[C@H]3COC(=O)[C@H]23)OCO4)cc(OC)c1O [Etoposide] | no difference | 
CC[C@@]1(O)C(=O)OCc2c1cc1n(c2=O)Cc2cc3c(CN(C)C)c(O)ccc3nc2-1 [Topotecan] | decreased IC50 values | 
COc1cccc2c1C(=O)c1c(O)c3c(c(O)c1C2=O)C[C@@](O)(C(=O)CO)C[C@@H]3O[C@H]1C[C@H](N)[C@H](O)[C@H](C)O1 [doxorubicin] | higher IC50 values | 
CCc1c2c(nc3ccc(OC(=O)N4CCC(N5CCCCC5)CC4)cc13)-c1cc3c(c(=O)n1C2)COC(=O)[C@]3(O)CC [Irinotecan] | decreased IC50 values | 
